Assay results as given in US20240358625A1, “STABILIZATION OF MYCOSPORINE-LIKE AMINO ACIDS” (NAGASE & CO., LTD., priority 2021, published 2024).

Tests used:
Type in all cases: physicochemical
[1] = Influence of bases constituting nucleic acids on the stability of MGA (residual rate); conditions: 0.1% MGA, pH 7.5, 60° C. for 3 days; adenine 0.01%, guanine, cytosine, uracil, thymine 0.2%
Description: The influence of bases (adenine, guanine, cytosine, uracil, and thymine) constituting nucleic acids on the stability of MGA and MG was investigated. A 0.1% MGA solution (adjusted to pH 7.5 with 0.1M phosphate buffer) each containing adenine (0.01%), guanine (0.2%), cytosine (0.2%), uracil (0.2%), or thymine (0.2%) was prepared. A 0.1% MG solution (adjusted to pH 7.5 with 0.1M phosphate buffer) each containing adenine (0.01%), cytosine (0.2%), uracil (0.2%), or thymine (0.2%) was prepared. After these solutions were left at 60° C. for 3 days for MGA, 20 days and 49 days for MG, the amounts of MGA and MG were measured to determine the residual rate.

[2] = Influence of pH on the stability of MG in solution and coloring of the MG solution
Description: Influence of pH on the stability of MG in a solution and the coloring of an MG solution were investigated. Adjustment of the solution to each pH was performed using 0.1 M phosphate buffer and phosphoric acid and NaOH as necessary. The MG concentration in the solution was 0.1%. MG solutions of each pH were prepared and left at 60° C. for 4 days, and then the amount of MG and the absorbance (400 nm) of the solutions were measured. The MG residual rate was determined by comparing with the amount at the start of the experiment.

[3] = Effect of 4-DG ratio on stabilizing MG and on coloring of the MG solution; conditions: MG 0.1%, 4-DG ratio 1.5 to 11.1 parts by weight
Description: The effect of 4-DG on stabilizing MG was investigated. Solutions at pH 7 (in 0.1M phosphate buffer) containing various ratios of 4-DG to MG (0.1%) were prepared, and the amount of MG after standing at 60° C. for 57 days was measured. Then, the MG residual rate was determined. Additionally, the absorbance (400 nm) of the solution was measured over time during the experiment period.

[4] = weakly acidic to weakly alkaline conditions, 60° C. for 4 days

Structure (SMILES)	stabilizing effect on MGA [1]	MG residual rate ([2]; 0.1% MG, 0.1 M phosphate buffer, pH 5.4 to 8.8, 60° C. for 4 days) [%]	absorbance (400 nm) of the solution ([2]; 0.1% MG, pH 5.4 to 8.0, 60° C. for 4 days)	coloring of the MG solution [2, 4]	stability of MG [2, 4]	residual rate of MG ([3]; pH 7, 60° C. for 57 days) [%]	absorbance (400 nm) of the solution ([3]; pH 7, 60° C., 57th day)
Nc1nc2nc[nH]c2c(=O)[nH]1 [guanine]	confirmed						
COC1=C(NCC(=O)O)C[C@@](O)(CO)CC1=O [MG, mycosporine-glycine]		≥ 88	≤ 0.018	suppressed	stabilized	≥ 74	≤ 0.17
